In the METLIN SMRT retention time set (Domingo-Almenara et al. 2019):

Experiment: gradient 5% acetonitrile 3 min, to 50% in 2 min, to 85% in 15 min, held 3 min, 100 µL/min
Conditions: column: Zorbax Extend-C18 2.1 x 50 mm; eluents: water / acetonitrile, 0.1% formic acid
In short: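 Data were gathered over 3 months by HPLC coupled to a quadrupole time-of-flight mass spectrometer, operated in positive and negative ionization mode. Mixtures of ~100 pure standards ran on a Zorbax Extend-C18 column (2.1 × 50 mm, 1.8 μm) at 100 μL/min, with water and acetonitrile each containing 0.1% formic acid and dead and dwell volumes of 40 μL and 900 μL. Retention time was read from adduct peaks picked by computer and checked manually.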

SMILES | RP-LC retention time
CCN1CCN(C(=O)c2c(OCC3CC3)cc(=O)n3c2CCCCC3)CC1 | 569 s
Cc1cc(N2CCCC2)n2nc(CN3CCCCC3C)nc2n1 (stereo not drawn) | 566 s
COc1ccc(Cn2c(CO)cnc2SCC(=O)N2CCCc3ccccc32)cc1 | 702 s
CCCn1cc(C(=O)N2CCC(N3CCCCC3)CC2)c2cccnc21 | 567 s
O=C(CC1CCCCN1S(=O)(=O)c1ccccc1)NCCc1c[nH]c2ccccc12 (stereo not drawn) | 794 s
COc1cc(C2CC(=O)c3c(C)nc(N4CCN(c5ccccn5)CC4)nc3C2)cc(OC)c1OC (stereo not drawn) | 678 s
COC(=O)c1ccccc1NC(=O)c1ccc(-n2ccnc2)nn1 | 666 s
COc1ccc(N(Cc2nc3nc(C)c(Cl)c(C)n3n2)C(=O)c2ccco2)cc1 | 824 s
CCS(=O)(=O)N1CCc2c(c(CN(C(=O)c3ccc(F)cc3)c3ccccc3)nn2C)C1 | 804 s
COc1cc2ncnc(Nc3cccc(Cl)c3)c2cc1OC | 750 s
Cc1nn(-c2ccc(-c3noc(C4CC4)n3)cc2)cc1C(=O)Nc1cc(F)ccc1F | 1070 s
CCOC(=O)N1CCN(c2cc(C(=O)O)c3cc(NC(=O)c4ccc(Cl)cc4)ccc3n2)CC1 | 667 s
O=c1ccc(-c2nc(-c3cccc(Br)c3)no2)cn1Cc1ccncc1 | 746 s
CCn1ccc2sc(C)c(C(=O)NCc3ccc4c(c3)OCO4)c2c1=O | 769 s
CCc1ccc(-c2cc3c(=O)n(Cc4noc(CN5CCCC5)n4)ccn3n2)cc1 | 694 s
CS(=O)(=O)N1CCC(C(=O)NCc2csc(-c3cccs3)n2)CC1 | 694 s
CCn1nc(CNC(=O)CSc2ccncc2)c2ccccc21 | 598 s
Cc1ccc(CN2CC(Oc3ccc(-c4noc(-c5ccncc5)n4)cc3)C2)o1 | 681 s
CCc1cccc(NS(=O)(=O)c2cc(-c3[nH]ncc3C(=O)N3CCCC3)oc2C)c1 | 760 s
CCOC(=O)C1=C(CN2CCN(C(C)CC)CC2)NC(=O)NC1c1ccc(F)cc1 (stereo not drawn) | 623 s
CCn1ccc(C(=O)NC2CCN(c3nnc4ccc(Cl)cn34)CC2)n1 | 581 s
Cc1cc(C)c(S(=O)(=O)N2CCc3c(c(-c4nnc(-c5ccccc5F)o4)nn3C)C2)c(C)c1 | 1070 s

SMILES | RP-LC retention time
CC(C)n1cc(S(=O)(=O)Nc2cc(F)cc(F)c2)c2cccnc21 | 936 s
O=C(NC1CCN(c2ccc(=O)[nH]n2)C1)c1ccc(F)c(Cl)c1 (stereo not drawn) | 648 s
O=C(Nc1cccc(Cl)c1F)c1cnc(-c2ccccc2)nc1-c1ccncc1 | 964 s
Cc1ccc(Cl)cc1N1CCN(C(=O)CCc2nnc3c4cc(-c5ccccc5)nn4ccn23)CC1 | 999 s
CCOC(=O)CC(=O)Nc1ccc(-c2nc(-c3cc(C)ccc3C)co2)cc1 | 1110 s
CC(=O)c1cccc(NC(=O)Cn2cccc2-c2nc(-c3ccc4c(c3)OCO4)no2)c1 | 951 s
CCOc1ccc(-n2c(=O)c3sccc3n(Cc3nc(-c4cccc(OC)c4)no3)c2=O)cc1 | 1000 s
COCCc1noc(C2Cc3ccccc3N2C(=O)NCc2ccco2)n1 (stereo not drawn) | 807 s
CCn1c(=O)c(C)nc2cc(-c3noc(-c4ccc(F)c(F)c4)n3)ccc21 | 1150 s
CN1C(=O)c2ccccc2Oc2ccc(C(=O)NCc3ccc4c(c3)OCO4)cc21 | 826 s
CCCn1cc(S(=O)(=O)Nc2ccc(F)cc2)c2cccnc21 | 858 s
O=C(c1cc(S(=O)(=O)N2CCCC(C(=O)N3CCCC3)C2)c[nH]1)N1CCCCCC1 (stereo not drawn) | 733 s
O=C(NC1CC1)c1ccc(OCC2CCCN(C(=O)c3c(F)cccc3F)C2)cc1 (stereo not drawn) | 820 s
COc1ccc(C(=O)Nc2c(-c3ccc(F)cc3)nc3ccccn23)cc1OC | 625 s
CCOc1coc(C(=O)Nc2cccc(F)c2)cc1=O | 695 s
CCN1c2ccc(C)cc2C(=O)NC12CCN(C(=O)c1cc(F)cc(F)c1)CC2 | 858 s
COc1ccc(NC(=O)CN2CCc3c(c(=O)c4cc(C)ccc4n3C)C2)cc1Cl | 638 s
COC(=O)C1=CN(c2cccc(OC)c2)c2ccccc2S1(=O)=O | 776 s
O=C(CSc1nc2ccccc2s1)NCCn1nc(-c2ccco2)ccc1=O | 687 s
Cc1ccsc1C(=O)Nc1cccc(-c2nnc3n2CCCC3)c1 | 640 s
COCCCNC(=O)C1CCC(=O)N(c2ccc(OC)cc2)C1c1ccc(OC)c(OC)c1 (stereo not drawn) | 612 s
CC1(C)CC(=O)C2=C(C1)N(CC1CCCO1)C(=O)C2(NC(=O)c1ccccc1)C(F)(F)F (stereo not drawn) | 906 s

SMILES | RP-LC retention time
CCCCSc1ncnc2[nH]ncc12 | 919 s
CCCCN1C(=O)c2ccccc2C(C(=O)NCc2ccncc2)C12CCCCC2 (stereo not drawn) | 662 s
CN(C)C(=O)c1cccnc1OC1CCN(C(=O)c2cccc(Br)c2)C1 (stereo not drawn) | 709 s
COc1ccc(-n2ncc3c(=O)n(Cc4nc(-c5ccc(C(F)(F)F)cc5)no4)cnc32)cc1 | 1090 s
c1ccc(Cc2nnc3sc(-c4ccc5ccccc5n4)nn23)cc1 | 1120 s
COc1ccc(Cl)cc1S(=O)(=O)NCc1c(-c2ccccc2)nc2sc(C)nn12 | 912 s
O=C(OCc1ccccc1)c1nc2ccccc2nc1N1CCN(c2ccccn2)CC1 | 798 s
Cc1nc(-c2cc(S(=O)(=O)NCc3ccccc3Cl)c(C)s2)cs1 | 1080 s
CN(C)CCNCc1ccc(-c2ccc(Br)cc2)o1 | 598 s
O=C(c1ccc(OCC2CCN(C(=O)c3ccsc3)CC2)cc1)N1CCOCC1 | 678 s
O=C(Cn1cnc2c(sc3nc(-c4ccccc4)ccc32)c1=O)NC1CCCCC1 | 972 s
Cc1ccc2c(c1)NC(=O)c1cc(NC(=O)c3ccccc3Br)ccc1O2 | 846 s
O=c1[nH]cc(S(=O)(=O)NC2CC3CCC2C3)c(=O)[nH]1 (stereo not drawn) | 637 s
COC(=O)Cn1c(C2CC(=O)N(c3ccccc3OC)C2)nc2ccccc21 (stereo not drawn) | 674 s
CN1C(=O)c2cc(S(=O)(=O)Nc3ccc(Cl)cc3F)ccc2Oc2cccnc21 | 962 s
O=C(c1ccc2ccccc2n1)N1CCOc2ccc(N3CCOCC3)cc2C1 | 784 s
Cc1nnc(-c2cn(CC(=O)Nc3cccc(F)c3)c3ccccc23)o1 | 755 s
COc1ccc(-c2cc(C(F)(F)F)n3ncc(C(=O)O)c3n2)cc1 | 822 s
CC1Cc2ccccc2N1C(=O)c1ccc(=O)n(CCC(=O)NC2CCCCC2)n1 (stereo not drawn) | 793 s
CC(CCc1ccccc1)NC(=O)Cc1nnc(-c2ccccn2)o1 (stereo not drawn) | 744 s
O=S(=O)(Cc1ccc(Cl)cc1)N1CCC(CN2CCCCCC2)CC1 | 683 s
COc1ccc(S(=O)(=O)Nc2ccc3oc(-c4ccccc4OC)cc(=O)c3c2)cc1 | 686 s

SMILES | RP-LC retention time
CCCN(C(=O)c1c(C)oc2nc(C)nc(N3CCOCC3)c12)c1ccc(OCC)cc1 | 902 s
COc1ccc(OC)c(S(=O)(=O)N2CCCN(C)c3ccccc32)c1 | 860 s
CCOc1ccc(C(Nc2ccccn2)c2ccc3ccc(C)nc3c2O)cc1C (stereo not drawn) | 811 s
CCn1nccc1-c1cccc(-c2noc(-c3ccc(OC)cc3C)n2)c1 | 1300 s
Cc1ccc(C(=O)N(c2ccc(Br)cc2)C2C=CS(=O)(=O)C2)cc1 (stereo not drawn) | 835 s
O=C(c1csc(N2CCCC2)n1)N1CCCC1 | 657 s
CC1=C(c2cccc(Cl)c2)S(=O)(=O)N=C1N1CCCN(C(=O)C2CCC2)CC1 | 850 s
O=C(NCCN1CCOCC1)c1nc2ccccn2c1-c1ccc(Cl)cc1 | 647 s
Cc1ccccc1CNC(=O)C1(C)CCCN(C(=O)Nc2ccccc2C(F)(F)F)C1 (stereo not drawn) | 1010 s
COc1ccc(C(=O)N2C[C@@H]3C[C@H]2C[C@@H]3NS(=O)(=O)c2ccccc2)cn1 | 716 s
CN1CCN(Cc2nn(C)c3c2CN(S(=O)(=O)c2ccc(F)c(Cl)c2)CC3)CC1 | 622 s
CC(C)c1ccc(C(=O)N2CCC(COc3ccc(C(=O)NC4CC4)cc3)CC2)cc1 | 947 s
COC(C)C(O)(C(=O)OCC1=CCN2CC[C@H](O)[C@@H]12)C(C)C (stereo partly drawn) | 644 s
O=C(Nc1ccc(C2(C(=O)O)CCC2)cc1)C1CC1 | 710 s
CNC(=O)c1cc2c(C)nn(-c3cccc(F)c3)c2s1 | 865 s
NS(=O)(=O)c1ccc(NC(=O)c2ccc(Br)cc2F)cc1 | 729 s
Cc1ccc(CNC(=O)C2CCCN(c3nc4ccccc4n(Cc4ccccc4)c3=O)C2)o1 (stereo not drawn) | 1150 s
CC(C)Sc1ccc(CC(=O)N2CC(c3nc(-c4ncccn4)no3)C2)cc1 | 732 s
Cc1oc(C2CCN(S(=O)(=O)c3ccc(C#N)cc3)CC2)nc1C(=O)N1CCCC1 | 872 s
CCc1ccc2[nH]c3c(c(=O)c2c1)CN(CC(=O)NCc1ccc(Cl)cc1)CC3 | 656 s
Cc1ccc(-c2ncc(C(=O)Nc3cc(F)ccc3F)c(-c3ccncc3)n2)cc1 | 988 s
CCC1=C[C@@H]2CN3CCc4c([nH]c5ccccc45)[C@@](C(=O)OC)(C2)[C@@H]13 | 728 s
